# Assay results reported in PMC11173382, “In Vitro Investigations into the Potential Drug Interactions of Pseudoginsenoside DQ Mediated by Cytochrome P450 and Human Drug Transporters” (Molecules, 2024).
# Molecular target: T1, hOATP1B3 (Homo sapiens, UniProt Q9NPD5)
# T1 sequence (Q9NPD5 1-702): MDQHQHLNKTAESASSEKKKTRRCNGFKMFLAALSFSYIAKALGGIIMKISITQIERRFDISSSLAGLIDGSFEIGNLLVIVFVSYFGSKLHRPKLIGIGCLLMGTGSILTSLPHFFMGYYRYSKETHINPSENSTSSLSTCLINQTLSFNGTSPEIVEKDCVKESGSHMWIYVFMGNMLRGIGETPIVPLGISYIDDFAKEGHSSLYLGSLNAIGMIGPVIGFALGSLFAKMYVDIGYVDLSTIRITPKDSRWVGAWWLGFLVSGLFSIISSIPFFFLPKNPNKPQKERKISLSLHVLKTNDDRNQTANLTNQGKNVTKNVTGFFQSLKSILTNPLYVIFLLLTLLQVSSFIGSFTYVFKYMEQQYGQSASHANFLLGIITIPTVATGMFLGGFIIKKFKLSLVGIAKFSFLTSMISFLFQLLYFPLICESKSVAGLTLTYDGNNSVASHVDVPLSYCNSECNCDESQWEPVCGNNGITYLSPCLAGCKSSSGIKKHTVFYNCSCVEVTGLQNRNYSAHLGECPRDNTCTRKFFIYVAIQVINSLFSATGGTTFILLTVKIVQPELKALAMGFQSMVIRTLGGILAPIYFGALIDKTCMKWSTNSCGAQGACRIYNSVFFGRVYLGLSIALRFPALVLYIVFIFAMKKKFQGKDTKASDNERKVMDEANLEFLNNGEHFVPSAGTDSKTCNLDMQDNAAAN
# Experiment: Substrates uptake assay, HEK293A-OATP1B3 cells (3H-EG)
# Type: in vitro ADME
# Description: Drug transporters mediate the cellular uptake and efflux of their substrates. Therefore, cell lines overexpressing a drug transporter can be utilized to investigate inhibitors of the transporter by assessing changes in substrate uptake. For each drug transporter, we selected a well-characterized inhibitor as the positive control. Radiolabeled substrates were used to indicate the decrease in transport efficiency when the drug transporters were inhibited by PDQ or the control inhibitors.
# The concentrations of the control drugs and the substrates were stated in the assay details. Working solutions of the control inhibitors, the radiolabeled substrates, and each dose of PDQ were prepared at 200 times (200×) more concentrated solutions with DMSO for further dilution.
# Transporter-overexpressed cell lines. Human organic anion transporter-overexpressed cell lines MDCKII-OAT1 and S2-OAT3, human organic anion transport polypeptide-overexpressed cell lines HEK293A-OATP1B1 and HEK293A-OATP1B3, human organic cation transporter 2-overexpressed cell line S2-OCT2, and human multi-drug resistance protein MDR1 (or P-gp)-overexpressed cell line MDCKII-MDR1 were gifts from Japan Fuji Biomedical Co., Ltd. (Fuji, Shizuoka Prefecture, Japan). Breast cancer resistance protein-overexpressed vesicles (sf9-BCRP vesicle) were purchased from GenoMembrane Co., Ltd. (Yokohama, Kanagawa, Japan).
# Substrates uptake assay. In this assay, we studied the inhibition of PDQ against transporters OAT1, OAT3, OCT2, OATP1B1 and OATP1B3 with MDCKII-OAT1, S2-OAT3, S2-OCT2, HEK293A-OATP1B1and HEK293A-OATP1B3 cells, respectively. The radiolabeled substrates for OAT1, OAT3, OATP1B1, OATP1B3 and OCT2 were […], respectively (Table 5). Probenecid ([…]) was the positive control inhibitor of OAT1 and OAT3, while rifampicin ([…]) served as the control drug of OATP1B1 and OATP1B3. For OCT2, we used […] cimetidine to compare with the inhibitory effect of PDQ. Two times (2×) more concentrated working solutions of the drugs and the substrate were prepared with Dulbecco’s phosphate-buffered saline (DPBS, Gibco, Grand Island, NY, USA.). Then, an equal volume of 2× drug solution and 2× radiolabeled substrate solution were mixed as the working mix. All reagents were pre-warmed to 37 °C.
# The cells were digested with 0.05% trypsin/EDTA. The density of the single-cell suspension was adjusted to 2.0 × 10^5 cells/mL for S2 cells and to 1.5 × 10^5 cells/mL for MDCK II and HEK293A cells. The cell suspension was then added to the reservoirs of the 24-well plate for culture until full confluency. The medium in the wells was removed, and the wells were washed with DPBS. Then, the plate was incubated for 10 min with pre-warmed DPBS in the wells. After removing DPBS, […] of working mix was added to each well to initiate the substrate uptake process. The reaction time was 5 min for S2-OCT2 cells, while the other four types of cells were incubated with the reaction mix for 2 min. Cold DPBS was used to terminate the substrate transportation. To each well, […] NaOH ([…]) was added to lyse the cells. Then, […] cell lysate was transferred to the counting vials, and 3 mL scintillation cocktail (Aquasol-2, PerkinElmer, Waltham, MA, USA) was added. […] Each sample was replicated three times (N = 3).
# In = [100 × (U − U0)/(Uc − U0)]%(3)
# The results were expressed as mean ± standard deviation (SD) and analyzed with GraphPad Prism 8.0 software (CA, USA). The IC50 of PDQ was curve-fitted with the FORECAST function. Statistical significance was calculated using a two-tailed test, and a p value < 0.05 was considered as significant.
smiles,measurement,setting,value
"CC(C)(O)[C@@H]1CC[C@@](C)([C@H]2CC[C@]3(C)[C@@H]2[C@H](O)C[C@@H]2[C@@]4(C)CC[C@H](O)C(C)(C)[C@@H]4CC[C@]23C)O1 [PDQ, (20S,24S)-dammar-20,24-epoxy-3β, 12β, 25-triol]",IC50,"HEK293A-OATP1B3, 3H-EG 1 µM, 2 min",> 30 µM
same,DPM (3H-EG uptake by OATP1B3),inhibitor 0.1 μM,3332.7±245.2 DPM
same,DPM (3H-EG uptake by OATP1B3),inhibitor 0.3 μM,3200.3±323.1 DPM
same,DPM (3H-EG uptake by OATP1B3),inhibitor 1 μM,3093.3±182.0 DPM
same,DPM (3H-EG uptake by OATP1B3),inhibitor 3 μM,2980.7±186.5 DPM
same,DPM (3H-EG uptake by OATP1B3),inhibitor 10 μM,2985.0±250.2 DPM
same,DPM (3H-EG uptake by OATP1B3),inhibitor 30 μM,2649.0±200.2 DPM
